Columns and labels:
Test in all cases: KINOMEscan competition binding
Conditions in all cases: compound 0.5 µM
ACVR2A (human) = ACVR2A (human) (UniProt P27037)
AXL (human) = AXL (human) (UniProt P30530)
BMX (human) = BMX (human) (UniProt P51813)
CAMK1D (human) = CAMK1D (human) (UniProt Q8IU85)
CAMK2B (human) = CAMK2B (human) (UniProt Q13554)
CAMK2D (human) = CAMK2D (human) (UniProt Q13557)
CAMKK2 (human) = CAMKK2 (human) (UniProt Q96RR4)
CDC42BPA (human) = CDC42BPA (human) (UniProt Q5VT25)
CDK16 (human) = CDK16 (human) (UniProt Q00536)
CDK17 (human) = CDK17 (human) (UniProt Q00537)
CDK3 (human) = CDK3 (human) (UniProt Q00526)
CDK5 (human) = CDK5 (human) (UniProt Q00535)
CRK2 (P.falciparum) = CRK2 (P.falciparum) (UniProt P61075)
CaMK1 (human) = CaMK1 (human) (UniProt Q14012)
DAPK3 (human) = DAPK3 (human) (UniProt O43293)
DCLK2 (human) = DCLK2 (human) (UniProt Q8N568)
DYRK2 (human) = DYRK2 (human) (UniProt Q92630)
EPHA6 (human) = EPHA6 (human) (UniProt Q9UF33)
EPHB3 (human) = EPHB3 (human) (UniProt P54753)
ERN1 (human) = ERN1 (human) (UniProt O75460)
IKBKE (human) = IKBKE (human) (UniProt Q14164)
[1] = target: JAK1 JH2 pseudokinase (human) (UniProt P23458)
MAP2K1 (human) = MAP2K1 (human) (UniProt Q02750)
MAP2K2 (human) = MAP2K2 (human) (UniProt P36507)
MAPK13 (human) = MAPK13 (human) (UniProt O15264)
MAPK4 (human) = MAPK4 (human) (UniProt P31152)
MARK1 (human) = MARK1 (human) (UniProt Q9P0L2)
MYO3A (human) = MYO3A (human) (UniProt Q8NEV4)
NEK9 (human) = NEK9 (human) (UniProt Q8TD19)
NUAK1 (human) = NUAK1 (human) (UniProt O60285)
PIK3CB (human) = PIK3CB (human) (UniProt P42338)
PIK3CG (human) = PIK3CG (human) (UniProt P48736)
PLK1 (human) = PLK1 (human) (UniProt P53350)
PTK6 (human) = PTK6 (human) (UniProt Q13882)
RAF1 (human) = RAF1 (human) (UniProt P04049)
RET (human) = RET (human) (UniProt P07949)
SRC (human) = SRC (human) (UniProt P12931)
STK11 (human) = STK11 (human) (UniProt Q15831)
TNK2 (human) = TNK2 (human) (UniProt Q07912)
TRPM6 (human) = TRPM6 (human) (UniProt Q9BX84)
TYRO3 (human) = TYRO3 (human) (UniProt Q06418)
WEE2 (human) = WEE2 (human) (UniProt P0C1S8)

Sequence of NEK9 (human) (Q8TD19 whole entry, looked up): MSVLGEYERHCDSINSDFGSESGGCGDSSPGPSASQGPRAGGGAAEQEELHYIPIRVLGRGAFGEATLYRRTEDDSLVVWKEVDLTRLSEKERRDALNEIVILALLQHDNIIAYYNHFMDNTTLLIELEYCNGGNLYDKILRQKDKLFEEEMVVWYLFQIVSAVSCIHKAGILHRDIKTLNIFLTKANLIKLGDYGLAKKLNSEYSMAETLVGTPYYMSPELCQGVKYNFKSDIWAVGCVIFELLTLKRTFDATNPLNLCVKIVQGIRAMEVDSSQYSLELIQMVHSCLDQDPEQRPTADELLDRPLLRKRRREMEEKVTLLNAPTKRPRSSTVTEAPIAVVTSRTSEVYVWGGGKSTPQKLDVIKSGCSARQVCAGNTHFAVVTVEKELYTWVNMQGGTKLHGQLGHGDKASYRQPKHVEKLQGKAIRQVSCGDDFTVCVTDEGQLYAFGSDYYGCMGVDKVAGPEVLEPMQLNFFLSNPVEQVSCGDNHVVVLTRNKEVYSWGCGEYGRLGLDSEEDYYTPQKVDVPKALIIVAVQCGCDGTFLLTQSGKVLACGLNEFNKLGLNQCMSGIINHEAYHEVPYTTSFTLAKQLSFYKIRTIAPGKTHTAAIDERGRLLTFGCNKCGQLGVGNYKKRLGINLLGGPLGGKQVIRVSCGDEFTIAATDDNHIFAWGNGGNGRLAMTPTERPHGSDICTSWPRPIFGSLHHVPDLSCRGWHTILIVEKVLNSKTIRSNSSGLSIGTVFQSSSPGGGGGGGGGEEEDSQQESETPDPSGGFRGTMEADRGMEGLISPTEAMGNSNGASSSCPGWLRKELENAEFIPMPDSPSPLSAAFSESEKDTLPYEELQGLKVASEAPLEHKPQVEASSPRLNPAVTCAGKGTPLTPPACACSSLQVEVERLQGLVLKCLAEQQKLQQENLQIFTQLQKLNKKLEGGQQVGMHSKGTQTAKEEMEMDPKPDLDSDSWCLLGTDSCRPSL
Sequence of MAPK4 (human) (P31152 whole entry, looked up): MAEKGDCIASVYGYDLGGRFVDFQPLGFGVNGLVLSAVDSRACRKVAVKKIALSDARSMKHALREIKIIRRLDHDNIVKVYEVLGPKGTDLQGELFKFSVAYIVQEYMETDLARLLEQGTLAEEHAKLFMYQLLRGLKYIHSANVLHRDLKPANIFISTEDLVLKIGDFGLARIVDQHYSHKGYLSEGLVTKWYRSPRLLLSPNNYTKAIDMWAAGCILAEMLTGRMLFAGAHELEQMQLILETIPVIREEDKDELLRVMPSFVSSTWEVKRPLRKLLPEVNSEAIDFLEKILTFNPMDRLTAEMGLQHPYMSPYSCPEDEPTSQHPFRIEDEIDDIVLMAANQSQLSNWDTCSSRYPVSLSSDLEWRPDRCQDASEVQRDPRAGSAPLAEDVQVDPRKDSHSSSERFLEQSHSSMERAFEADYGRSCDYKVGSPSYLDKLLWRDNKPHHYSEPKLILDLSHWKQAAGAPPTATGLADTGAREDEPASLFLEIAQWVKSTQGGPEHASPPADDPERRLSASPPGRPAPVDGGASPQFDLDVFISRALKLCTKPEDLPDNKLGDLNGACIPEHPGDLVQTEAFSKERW
Sequence of EPHB3 (human) (P54753 whole entry, looked up): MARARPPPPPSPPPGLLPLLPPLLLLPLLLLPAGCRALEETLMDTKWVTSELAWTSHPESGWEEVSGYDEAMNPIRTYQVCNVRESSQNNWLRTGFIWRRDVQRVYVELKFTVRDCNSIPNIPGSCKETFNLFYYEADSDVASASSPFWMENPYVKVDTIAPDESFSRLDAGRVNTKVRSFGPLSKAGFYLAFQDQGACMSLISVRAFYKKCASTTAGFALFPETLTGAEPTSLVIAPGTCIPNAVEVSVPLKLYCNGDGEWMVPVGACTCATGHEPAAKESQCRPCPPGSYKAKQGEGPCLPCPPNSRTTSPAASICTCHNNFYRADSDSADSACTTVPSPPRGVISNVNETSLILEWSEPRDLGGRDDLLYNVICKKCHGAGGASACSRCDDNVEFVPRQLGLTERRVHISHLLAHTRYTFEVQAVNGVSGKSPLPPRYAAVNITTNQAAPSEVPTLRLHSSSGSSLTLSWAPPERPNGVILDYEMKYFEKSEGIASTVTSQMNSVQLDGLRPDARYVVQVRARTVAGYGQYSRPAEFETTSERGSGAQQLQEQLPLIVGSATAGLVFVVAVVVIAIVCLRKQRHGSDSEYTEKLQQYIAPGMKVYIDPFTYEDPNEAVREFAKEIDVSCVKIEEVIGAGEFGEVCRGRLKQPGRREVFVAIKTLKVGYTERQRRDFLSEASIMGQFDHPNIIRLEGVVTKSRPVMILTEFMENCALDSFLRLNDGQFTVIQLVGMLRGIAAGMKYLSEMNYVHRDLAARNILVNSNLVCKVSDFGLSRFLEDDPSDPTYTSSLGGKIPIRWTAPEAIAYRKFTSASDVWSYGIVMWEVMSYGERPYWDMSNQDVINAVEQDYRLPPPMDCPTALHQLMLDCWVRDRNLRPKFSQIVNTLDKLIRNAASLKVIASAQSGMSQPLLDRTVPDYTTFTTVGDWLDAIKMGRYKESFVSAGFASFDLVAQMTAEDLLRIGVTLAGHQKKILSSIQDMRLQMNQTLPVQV
Sequence of IKBKE (human) (Q14164 whole entry, looked up): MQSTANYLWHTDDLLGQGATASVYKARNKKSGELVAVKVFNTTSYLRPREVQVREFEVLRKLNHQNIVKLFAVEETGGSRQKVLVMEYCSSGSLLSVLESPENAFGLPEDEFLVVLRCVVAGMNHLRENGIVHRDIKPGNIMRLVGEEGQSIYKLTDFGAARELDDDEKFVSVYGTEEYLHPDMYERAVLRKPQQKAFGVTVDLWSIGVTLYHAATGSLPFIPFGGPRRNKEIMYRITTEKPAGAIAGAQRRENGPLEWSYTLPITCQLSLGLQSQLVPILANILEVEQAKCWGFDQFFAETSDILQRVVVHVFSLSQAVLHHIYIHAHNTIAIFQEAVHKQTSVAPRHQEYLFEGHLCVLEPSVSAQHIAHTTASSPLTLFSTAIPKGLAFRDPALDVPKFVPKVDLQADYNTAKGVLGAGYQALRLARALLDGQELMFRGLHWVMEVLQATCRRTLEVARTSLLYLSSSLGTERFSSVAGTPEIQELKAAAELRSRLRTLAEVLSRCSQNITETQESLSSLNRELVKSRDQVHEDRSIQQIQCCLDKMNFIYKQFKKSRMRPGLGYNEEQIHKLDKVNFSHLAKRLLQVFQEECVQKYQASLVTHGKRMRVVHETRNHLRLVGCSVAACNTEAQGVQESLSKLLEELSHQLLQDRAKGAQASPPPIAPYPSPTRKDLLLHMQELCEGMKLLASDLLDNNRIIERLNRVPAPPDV
Sequence of ERN1 (human) (O75460 whole entry, looked up): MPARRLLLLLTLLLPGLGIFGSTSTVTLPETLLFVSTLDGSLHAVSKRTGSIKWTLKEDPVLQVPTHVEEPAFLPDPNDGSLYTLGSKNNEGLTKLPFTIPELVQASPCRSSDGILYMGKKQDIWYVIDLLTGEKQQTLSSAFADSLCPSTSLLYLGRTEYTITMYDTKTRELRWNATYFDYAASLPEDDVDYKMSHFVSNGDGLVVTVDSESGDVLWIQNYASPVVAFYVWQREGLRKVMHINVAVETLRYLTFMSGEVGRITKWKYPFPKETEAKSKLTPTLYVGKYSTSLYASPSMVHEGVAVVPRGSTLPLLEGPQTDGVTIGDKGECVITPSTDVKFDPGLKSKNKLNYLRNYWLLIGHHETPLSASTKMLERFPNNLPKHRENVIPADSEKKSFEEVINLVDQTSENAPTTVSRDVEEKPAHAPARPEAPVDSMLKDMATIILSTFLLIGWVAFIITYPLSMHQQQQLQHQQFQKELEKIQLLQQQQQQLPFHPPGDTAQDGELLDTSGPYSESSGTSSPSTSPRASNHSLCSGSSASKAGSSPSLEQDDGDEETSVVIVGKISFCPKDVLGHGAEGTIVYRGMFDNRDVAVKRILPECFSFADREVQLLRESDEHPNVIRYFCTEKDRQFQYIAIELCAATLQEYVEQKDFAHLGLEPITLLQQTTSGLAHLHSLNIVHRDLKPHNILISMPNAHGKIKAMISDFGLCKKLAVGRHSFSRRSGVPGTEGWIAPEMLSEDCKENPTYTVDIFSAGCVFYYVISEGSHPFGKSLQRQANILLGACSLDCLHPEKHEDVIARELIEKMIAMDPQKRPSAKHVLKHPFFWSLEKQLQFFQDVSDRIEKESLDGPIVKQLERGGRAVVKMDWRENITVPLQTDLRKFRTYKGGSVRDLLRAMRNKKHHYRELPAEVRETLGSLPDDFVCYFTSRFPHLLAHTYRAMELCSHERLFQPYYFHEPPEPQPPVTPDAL
Sequence of MARK1 (human) (Q9P0L2 whole entry, looked up): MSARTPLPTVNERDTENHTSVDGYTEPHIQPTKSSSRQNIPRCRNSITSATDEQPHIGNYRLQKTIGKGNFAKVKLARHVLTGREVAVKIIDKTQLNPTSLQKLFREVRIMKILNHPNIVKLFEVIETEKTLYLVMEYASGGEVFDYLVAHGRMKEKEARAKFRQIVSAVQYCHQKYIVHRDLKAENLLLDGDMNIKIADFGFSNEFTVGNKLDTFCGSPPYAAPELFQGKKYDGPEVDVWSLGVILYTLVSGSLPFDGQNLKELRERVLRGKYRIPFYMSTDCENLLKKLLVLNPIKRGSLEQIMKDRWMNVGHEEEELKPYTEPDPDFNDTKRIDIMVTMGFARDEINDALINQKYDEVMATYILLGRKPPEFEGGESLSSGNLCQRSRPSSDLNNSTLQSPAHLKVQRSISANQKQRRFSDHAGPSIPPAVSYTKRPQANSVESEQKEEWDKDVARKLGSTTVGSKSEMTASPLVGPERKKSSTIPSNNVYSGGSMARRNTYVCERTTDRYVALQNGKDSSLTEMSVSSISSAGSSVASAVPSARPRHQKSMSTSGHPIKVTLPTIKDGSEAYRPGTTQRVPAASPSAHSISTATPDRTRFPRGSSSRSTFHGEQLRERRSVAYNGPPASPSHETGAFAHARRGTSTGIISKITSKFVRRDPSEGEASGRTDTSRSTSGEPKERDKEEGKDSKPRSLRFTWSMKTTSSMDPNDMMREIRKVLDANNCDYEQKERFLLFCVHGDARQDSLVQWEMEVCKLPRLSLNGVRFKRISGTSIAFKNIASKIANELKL

Compound: Cn1c2ccccc2c2c3c(c4c5ccccc5n(CCC#N)c4c21)CNC3=O
- kinase still bound, per cent of control (ACVR2A (human)): 100%
- kinase still bound, per cent of control (AXL (human)): 72%
- kinase still bound, per cent of control (BMX (human)): 66%
- kinase still bound, per cent of control (CAMK1D (human)): 93%
- kinase still bound, per cent of control (CAMK2B (human)): 63%
- kinase still bound, per cent of control (CAMK2D (human)): 33%
- kinase still bound, per cent of control (CAMKK2 (human)): 1.6%
- kinase still bound, per cent of control (CDC42BPA (human)): 94%
- kinase still bound, per cent of control (CDK16 (human)): 93%
- kinase still bound, per cent of control (CDK17 (human)): 100%
- kinase still bound, per cent of control (CDK3 (human)): 75%
- kinase still bound, per cent of control (CDK5 (human)): 61%
- kinase still bound, per cent of control (CRK2 (P.falciparum)): 85%
- kinase still bound, per cent of control (CaMK1 (human)): 76%
- kinase still bound, per cent of control (DAPK3 (human)): 75%
- kinase still bound, per cent of control (DCLK2 (human)): 100%
- kinase still bound, per cent of control (DYRK2 (human)): 37%
- kinase still bound, per cent of control (EPHA6 (human)): 86%
- kinase still bound, per cent of control (EPHB3 (human)): 85%
- kinase still bound, per cent of control (ERN1 (human)): 43%
- kinase still bound, per cent of control (IKBKE (human)): 99%
- kinase still bound, per cent of control [1]: 75%
- kinase still bound, per cent of control (MAP2K1 (human)): 71%
- kinase still bound, per cent of control (MAP2K2 (human)): 61%
- kinase still bound, per cent of control (MAPK13 (human)): 100%
- kinase still bound, per cent of control (MAPK4 (human)): 100%
- kinase still bound, per cent of control (MARK1 (human)): 64%
- kinase still bound, per cent of control (MYO3A (human)): 35%
- kinase still bound, per cent of control (NEK9 (human)): 100%
- kinase still bound, per cent of control (NUAK1 (human)): 89%
- kinase still bound, per cent of control (PIK3CB (human)): 88%
- kinase still bound, per cent of control (PIK3CG (human)): 3.1%
- kinase still bound, per cent of control (PLK1 (human)): 100%
- kinase still bound, per cent of control (PTK6 (human)): 77%
- kinase still bound, per cent of control (RAF1 (human)): 100%
- kinase still bound, per cent of control (RET (human)): 0.6%
- kinase still bound, per cent of control (SRC (human)): 100%
- kinase still bound, per cent of control (STK11 (human)): 4.4%
- kinase still bound, per cent of control (TNK2 (human)): 18%
- kinase still bound, per cent of control (TRPM6 (human)): 81%
- kinase still bound, per cent of control (TYRO3 (human)): 78%
- kinase still bound, per cent of control (WEE2 (human)): 100%

From the kinase profiling compilation of Christmann-Franck et al. (2016)
